Source: article PMC6599250, “Functional diversity of inhibitors tackling the differentiation blockage of MLL-rearranged leukemia” (Journal of Hematology & Oncology, 2019)
Where two headings read alike, the source gives them in different places.

Key:
Type in all cases: cell-based
[1] = system: MV4-11, MOLM-13 and HL-60 cells; assay: Cell cycle analysis (PI, flow cytometry); conditions: 4 days of treatment (Figure S2)
Experimental: Cells were washed with PBS and fixed overnight at − 20 °C with 70% ethanol. Fixed cells were stained with PI solution (Sigma-Aldrich St. Louis, MO, USA) solution containing RNase A (Qiagen, Hilden, Germany). Fluorescence was measured with FACS Canto II (BD Biosciences, Heidelberg, Germany) flow cytometer and data was analyzed with FACSDiva software.

[2] = system: MV4-11, MOLM-13 and HL-60 cells; assay: Cell proliferation, all three tested AML cell lines; conditions: 96 h; all tested cell lines (MV4-11, MOLM-13, HL-60), 4 days of treatment (Fig. 1a); read-out: anti-proliferation IC50s
Experimental: Cells were seeded in the optimal growth medium at 4000–5000 cells/well in a 96 MTP and cultured 18–24 h before inhibitor treatment. Upon treatment with the indicated inhibitor, cells were cultured for 24 h, 96 h, and 168 h and effects on proliferation were determined using alamarBlue Cell Viability Reagent (Thermo Fisher Scientific, Waltham, MA, USA).

SEM (MLL-AF4) cells = assay: Cell proliferation (alamarBlue) SEM; conditions: SEM (MLL-AF4), read-out: IC50 proliferation
Experimental: (§1) Cells were seeded in the optimal growth medium at 4000–5000 cells/well in a 96 MTP and cultured 18–24 h before inhibitor treatment.

MV4-11 (MLL-AF4) cells = assay: Cell proliferation (alamarBlue) MV4-11; conditions: Homo sapiens, MV4-11, MV4-11 (MLL-AF4), read-out: IC50 proliferation
Experimental: as §1

NOMO-1 (MLL-AF9) cells = assay: Cell proliferation (alamarBlue) NOMO-1; conditions: Homo sapiens, NOMO-1, NOMO-1 (MLL-AF9), read-out: IC50 proliferation
Experimental: as §1

OCI-AML-5 (MLL-WT) cells = assay: Cell proliferation (alamarBlue) OCI-AML-5; conditions: Homo sapiens, OCI-AML-5, OCI-AML-5 (MLL-WT), read-out: IC50 proliferation
Experimental: as §1

OCI-AML-3 (MLL-WT) cells = assay: Cell proliferation (alamarBlue) OCI-AML-3; conditions: Homo sapiens, OCI-AML-3, OCI-AML-3 (MLL-WT), read-out: IC50 proliferation
Experimental: as §1

ML-2 (MLL-AF6) cells = assay: Cell proliferation (alamarBlue) ML-2; conditions: ML-2 (MLL-AF6), read-out: IC50 proliferation
Experimental: as §1

Jurkat (MLL-WT) cells = assay: Cell proliferation (alamarBlue) Jurkat; conditions: Homo sapiens, Jurkat (MLL-WT)
Experimental: as §1

[3] = system: OCI-AML-2 (MLL-AF9) cells; assay: Cell proliferation (alamarBlue) OCI-AML-2; conditions: Homo sapiens, OCI-AML2, OCI-AML-2 (MLL-AF9), read-out: IC50 proliferation
Experimental: as §1

HL-60 cells = assay: CD11b protein expression by flow cytometry, HL-60; conditions: non-fused HL-60 cell line, 4 and 7 days of treatment
Experimental: (§2) Four thousand cells per well were seeded 24 h before they were treated with the indicated inhibitor in a 96 MTP. After 4 or 7 days of treatment, cells were washed with PBS and stained with CD11b - APC (BioLegend, San Diego, California, USA) and DAPI (Thermo Fisher Scientific, Waltham, Massachusetts, USA) or AnnexinV – FITC (BioLegend, San Diego, California, USA) and PI solution (Sigma-Aldrich St. Louis, Missouri, USA) using the FACS Canto II (BD Biosciences, Heidelberg, Germany) and data was analyzed with FACSDiva software.

MOLM-13 (MLL-AF9) cells = assay: Cell proliferation (alamarBlue) MOLM-13; conditions: Homo sapiens, MOLM-13, MOLM-13 (MLL-AF9), read-out: IC50 proliferation
Experimental: as §1

KOPN-8 (MLL-ENL) cells = assay: Cell proliferation (alamarBlue) KOPN-8; conditions: Homo sapiens, KOPN-8, KOPN-8 (MLL-ENL), read-out: IC50 proliferation
Experimental: as §1

HL-60 (MLL-WT) cells = assay: Cell proliferation (alamarBlue) HL-60; conditions: Homo sapiens, HL-60 (MLL-WT), read-out: IC50 proliferation
Experimental: as §1

EOL-1 (MLL-TD) cells = assay: Cell proliferation (alamarBlue) EOL-1; conditions: Homo sapiens, EOL1, EOL-1 (MLL-TD), read-out: IC50 proliferation
Experimental: as §1

[4] = system: MLL-fused cell lines (MV4-11, MOLM-13); assay: CD11b protein expression by flow cytometry, MLL-fused lines; conditions: 4 and 7 days of treatment
Experimental: as §2

MOLM-14 (MLL-AF9) cells = assay: Cell proliferation (alamarBlue) MOLM-14; conditions: Homo sapiens, MOLM-14, MOLM-14 (MLL-AF9), read-out: IC50 proliferation
Experimental: as §1

RS4;11 (MLL-AF4) cells = assay: Cell proliferation (alamarBlue) RS4;11; conditions: Homo sapiens, RS4-11, RS4;11 (MLL-AF4), read-out: IC50 proliferation
Experimental: as §1

## Cc1sc2c(c1C)C(c1ccc(Cl)cc1)=N[C@@H](CC(=O)Nc1ccc(O)cc1)c1nnc(C)n1-2 [OTX015]
[1]
  cell cycle effect: decrease of cells in S and G2/M phase with increasing concentrations
[2]
  IC50: 30 to 140 nM
SEM (MLL-AF4) cells; D1
  IC50: > 10000 nM
SEM (MLL-AF4) cells; D4
  IC50: 70 nM
SEM (MLL-AF4) cells; D7
  IC50: 80 nM
MV4-11 (MLL-AF4) cells; D1
  IC50: > 10000 nM
MV4-11 (MLL-AF4) cells; D4
  IC50: 140 nM
MV4-11 (MLL-AF4) cells; D7
  IC50: 180 nM
NOMO-1 (MLL-AF9) cells; D1
  IC50: > 10000 nM
NOMO-1 (MLL-AF9) cells; D4
  IC50: 10 nM
NOMO-1 (MLL-AF9) cells; D7
  IC50: 10 nM
OCI-AML-5 (MLL-WT) cells; D1
  IC50: > 10000 nM
OCI-AML-5 (MLL-WT) cells; D4
  IC50: 70 nM
OCI-AML-5 (MLL-WT) cells; D7
  IC50: 80 nM
OCI-AML-3 (MLL-WT) cells; D1
  IC50: > 10000 nM
OCI-AML-3 (MLL-WT) cells; D4
  IC50: 40 nM
OCI-AML-3 (MLL-WT) cells; D7
  IC50: 70 nM
ML-2 (MLL-AF6) cells; D1
  IC50: > 10000 nM
ML-2 (MLL-AF6) cells; D4
  IC50: 390 nM
ML-2 (MLL-AF6) cells; D7
  IC50: 180 nM
Jurkat (MLL-WT) cells; D1, read-out: IC50 proliferation
  IC50: > 10000 nM
Jurkat (MLL-WT) cells; D4, read-out: IC50 proliferation
  IC50: 100 nM
Jurkat (MLL-WT) cells; D7, read-out: IC50 proliferation
  IC50: 170 nM
[3]; D1
  IC50: > 10000 nM
[3]; D7
  IC50: 80 nM
HL-60 cells
  CD11b level: treatment did
MOLM-13 (MLL-AF9) cells; D1
  IC50: > 10000 nM
MOLM-13 (MLL-AF9) cells; D4
  IC50: 30 nM
MOLM-13 (MLL-AF9) cells; D7
  IC50: 110 nM
KOPN-8 (MLL-ENL) cells; D1
  IC50: > 10000 nM
KOPN-8 (MLL-ENL) cells; D4
  IC50: 300 nM
KOPN-8 (MLL-ENL) cells; D7
  IC50: 320 nM
HL-60 (MLL-WT) cells; 24 h, 1 day of treatment (D1)
  IC50: > 10000 nM
HL-60 (MLL-WT) cells; 96 h, 4 days of treatment (D4)
  IC50: 70 nM
HL-60 (MLL-WT) cells; 168 h, 7 days of treatment (D7)
  IC50: 270 nM
EOL-1 (MLL-TD) cells; D1
  IC50: > 10000 nM
EOL-1 (MLL-TD) cells; D4
  IC50: 30 nM
EOL-1 (MLL-TD) cells; D7
  IC50: 40 nM
[4]
  CD11b protein level: increased CD11b protein level in a dose and time-dependent manner
MOLM-14 (MLL-AF9) cells; D1
  IC50: > 10000 nM
MOLM-14 (MLL-AF9) cells; D4
  IC50: 40 nM
MOLM-14 (MLL-AF9) cells; D7
  IC50: 60 nM
RS4;11 (MLL-AF4) cells; D1
  IC50: > 10000 nM
RS4;11 (MLL-AF4) cells; D4
  IC50: 170 nM
RS4;11 (MLL-AF4) cells; D7
  IC50: 150 nM
